What is called Ki is a dissociation constant, usually derived from enzyme kinetics or from competition with a known ligand. The low end stands for a stronger hold on the target, the high end for a looser hold on the target. Usually IC50 stands for the concentration that gives 50% inhibition.

One data set concerns the target T1, UGT2B7 (Homo sapiens, UniProt P16662).
T1 sequence (P16662 24-529): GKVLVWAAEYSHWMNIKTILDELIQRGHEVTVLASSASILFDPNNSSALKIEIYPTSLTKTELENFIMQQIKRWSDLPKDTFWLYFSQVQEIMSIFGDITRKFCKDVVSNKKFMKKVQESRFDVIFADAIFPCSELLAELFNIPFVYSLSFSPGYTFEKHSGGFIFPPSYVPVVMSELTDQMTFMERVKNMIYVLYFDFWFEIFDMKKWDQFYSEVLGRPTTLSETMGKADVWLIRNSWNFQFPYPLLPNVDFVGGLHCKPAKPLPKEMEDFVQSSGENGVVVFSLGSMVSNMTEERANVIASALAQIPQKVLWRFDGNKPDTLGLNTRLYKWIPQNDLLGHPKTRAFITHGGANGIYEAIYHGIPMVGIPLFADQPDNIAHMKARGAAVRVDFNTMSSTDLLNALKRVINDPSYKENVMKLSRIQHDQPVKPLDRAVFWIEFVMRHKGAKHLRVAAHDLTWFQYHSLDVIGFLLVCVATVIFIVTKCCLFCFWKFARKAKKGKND
The data set is described as follows: Enzyme kinetic assay (Ki, Dixon plot) of UGT2B7-mediated zidovudine glucuronidation. The settings on record: for inhibition mode on UGT2B7: Dixon plot, visual inspection. As for the experimental part:
(§1) Inhibitory effects of sauchinone on UGT1A1, 1A3, 1A4, 1A6, 1A9, and 2B7 activities were evaluated using HLMs. […] Spiked volume of UGT cocktail set was 1% (v/v) of total volume of mixture. […] The reaction was initiated by adding 5 mM UDPGA to a final volume of 150 μL and incubated at 37 °C for 15 or 60 min in a thermomixer at 500 rpm. Each reaction was stopped by adding 150 μL of ice-cold methanol containing 50 ng/mL IS. These mixtures were then centrifuged (12,000 rpm for 10 min at 4 °C) and 5 μL of the supernatant was injected into a UPLC-MS/MS system. […] Their IC50 values were compared to that of sauchinone. All inhibitors were dissolved in methanol (except for hecogenin, which was dissolved in dimethyl sulfoxide) and serially diluted to the required concentrations using the same solutions. The final concentration of organic solvent of inhibitors was 1% (v/v). All studies were performed in triplicate and mean values were used in the analysis. The half maximal inhibition constant (IC50) of sauchinone on UGT isoforms was estimated using GraphPad program.
(§2) Based on IC50 values, Ki values of sauchinone for UGT1A6 and 2B7 were determined. Concentrations of 0–200 μM of sauchinone were used. Other procedures were similar to those mentioned above in the study of reversible inhibitory effects of sauchinone. Inhibitory characteristics of sauchinone were initially estimated by nonlinear least squares regression analysis and Ki values were determined by Dixon plots.

A further data set addresses T2, Ugt1a9 (Mus musculus, UniProt Q62452).
T2 construct: from tissue; host or cells: mouse liver microsomes prepared in house
T2 sequence (Q62452 24-528): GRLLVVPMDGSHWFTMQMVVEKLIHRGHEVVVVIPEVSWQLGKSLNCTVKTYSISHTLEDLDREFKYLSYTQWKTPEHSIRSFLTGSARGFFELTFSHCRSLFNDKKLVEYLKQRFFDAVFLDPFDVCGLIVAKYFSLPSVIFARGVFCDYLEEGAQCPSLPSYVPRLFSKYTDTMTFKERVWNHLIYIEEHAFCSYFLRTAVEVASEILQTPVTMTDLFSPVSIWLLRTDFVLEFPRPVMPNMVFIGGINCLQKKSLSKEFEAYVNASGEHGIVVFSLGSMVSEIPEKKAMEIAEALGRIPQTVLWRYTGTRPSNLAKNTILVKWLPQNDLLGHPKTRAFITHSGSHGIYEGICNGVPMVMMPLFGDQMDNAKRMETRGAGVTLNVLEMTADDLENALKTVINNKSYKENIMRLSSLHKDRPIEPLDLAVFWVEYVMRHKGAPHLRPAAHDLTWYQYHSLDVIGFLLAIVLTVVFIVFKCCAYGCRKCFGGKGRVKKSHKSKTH
The data set is described as follows: Inhibition of Ugt1a9 (propofol) in mice liver microsomes. The class given is in vitro ADME. The settings on record: pH 7.6, probe propofol (100 μM, in UGT substrate cocktail), read-out: IC50 of Ugt1a9-catalyzed propofol. As for the experimental part: Their IC50 values were compared to that of sauchinone. […] Mice were sacrificed and then livers were removed and rinsed with saline. After weighing the livers, they were homogenized with a four-fold volume of ice-cold homogenizing buffer (0.154 M KCl, 50 mM Tris-base, 1 mM EDTA, pH 7.4). After centrifugation for 35 min at 9000× g and 4 °C, the supernatants were centrifuged for 95 min at 100,000× g and at 4 °C. The supernatants were discarded and the pellets were homogenized again with ice-cold homogenizing buffer. These aliquots were stored at −80 °C. The subsequent process to evaluate the inhibitory effects of sauchinone on UGT activities in MLM was the same as those using HLM. UGT-mediated activities in the presence of sauchinone as an inhibitor were expressed as percentages of corresponding control values (in absence of sauchinone). From percentages of control activity versus inhibitor concentrations, a sigmoid shaped curve was fitted to the data and IC50 as an enzyme inhibition parameter was calculated by fitting the Hill equation to the data using GraphPad Prism 5 (GraphPad Software Inc., San Diego, CA, USA).

The next data set deals with T3, UGT1A6 (Homo sapiens, UniProt P19224).
T3 construct: tissue Corning Life Sciences 452156; host or cells: pooled human liver microsomes
T3 sequence (P19224 27-532): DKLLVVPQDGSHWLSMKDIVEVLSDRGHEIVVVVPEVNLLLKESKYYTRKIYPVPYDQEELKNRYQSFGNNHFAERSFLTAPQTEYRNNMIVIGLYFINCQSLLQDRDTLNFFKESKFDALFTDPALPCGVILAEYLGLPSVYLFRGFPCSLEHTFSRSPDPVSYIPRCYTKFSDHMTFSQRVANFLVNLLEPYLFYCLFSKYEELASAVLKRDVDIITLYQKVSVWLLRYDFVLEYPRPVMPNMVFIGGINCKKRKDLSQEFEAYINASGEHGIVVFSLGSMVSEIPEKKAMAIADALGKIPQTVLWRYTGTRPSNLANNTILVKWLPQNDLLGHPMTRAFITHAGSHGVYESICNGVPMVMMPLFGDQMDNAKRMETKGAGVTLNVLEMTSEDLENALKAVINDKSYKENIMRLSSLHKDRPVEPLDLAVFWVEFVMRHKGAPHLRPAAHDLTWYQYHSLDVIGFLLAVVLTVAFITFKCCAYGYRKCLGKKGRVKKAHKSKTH
The data set is described as follows: Enzyme kinetic assay (Ki, Dixon plot) of UGT1A6-mediated serotonin glucuronidation. The data set is classed as in vitro ADME. The settings on record: for inhibition mode on UGT1A6: Dixon plot, visual inspection. As for the experimental part:
as §1, §2

In the case of `C[C@@H]1[C@H]2c3cc4c(cc3O[C@@]35OCOC3=CC(=O)[C@H](C[C@H]1C)[C@@H]25)OCO4` [Sauchinone], the Ki came out at 524 nM on UGT2B7 and 1080 nM on UGT1A6. Moreover, the “inhibition mode on UGT2B7” value against UGT2B7 is listed as “noncompetitively inhibited”; at UGT2B7 (listed as sauchinone) it was “noncompetitive inhibition mode”. Moreover, the “Vmax for UGT2B7-mediated zidovudine glucuronidation with inhibitor” value at UGT2B7 (sauchinone as inhibitor at 50 μM (decrease from 31.5 at 0 μM)) was 0.495 μM/min/mg protein. Also, at Ugt1a9, the IC50 was determined as 29800 nM. The “inhibition mode on UGT1A6” value is “noncompetitively inhibited” at UGT1A6 and “noncompetitive inhibition mode” against UGT1A6 (listed as sauchinone). Moreover, the “Vmax for UGT1A6-mediated serotonin glucuronidation with inhibitor” value on UGT1A6 (sauchinone as inhibitor at 50 μM (decrease from 174 at 0 μM)) came to 6.36 μM/min/mg protein.

Source of the values: publication PMC6017115, “Inhibitory Effect of Sauchinone on UDP-Glucuronosyltransferase (UGT) 2B7 Activity” (Molecules : A Journal of Synthetic Chemistry and Natural …, 2018).
